# Test results published in US20240327364A1, “THERAPEUTIC TARGETING OF GPR68 TO INDUCE FERROPTOSIS” (University Of Maryland, Baltimore, priority 2023, published 2024).
# Columns and labels:
# [1] = biological target: T1, PAF (Homo sapiens, UniProt P25105); test: GPCR Profiler; format: cell-based
# T1 construct: host or cells: Chem-1 cells with Gα15
# [2] = biological target: T2, ERN1 (Homo sapiens, UniProt O75460); test: KinomeScan; format: binding; settings: read-out: % Control
# T2 construct: purchased DiscoveRx (Fremont, CA)
# [3] = system: 158 GPCRs; test: GPCR profiling panel (summary); format: cell-based; settings: 10 μM
# Description: GPCR profiling assays were performed by Millipore (St. Louis, MO) using in cells expressing Gα15, a promiscuous G protein that enhances GPCR coupling to downstream Ca2+ signaling pathways. KinomeScan was conducted by DiscoveRx (Fremont, CA).
# Since GPCRs represent >30% of targets for FDA-approved small molecules and are known to modulate cell migration, activity against 158 GPCRs was assessed based on their chemical structures. GPCRs (158) were tested for agonist and antagonist activity at 10 μM. […] Chemical segregation analysis of zebrafish phenotype was conducted to further identify the inhibitory activity responsible for the zebrafish phenotype. […] The identities of the R groups in Formula A are shown below in Table 5.
# To identify the target of OGM1, the molecule was profiled for binding in a panel of 442 kinases (KinomeScan™, DiscoveRx™) and assessed its activity against 158 GPCRs in a single-point assay in Chem-1 cells that uses a promiscuous Gα15 protein to trigger calcium flux (see Table 9 and Table 10, below). […] Table 9. KinomeScan (DiscoverRx) profiling of OGM1.
# [4] = biological target: T3, CDK2 (Homo sapiens, UniProt P24941); test: KinomeScan; format: binding; settings: read-out: % Control
# T3 construct: purchased DiscoveRx (KinomeScan service)
# [5] = biological target: T4, 5-HT2C (Homo sapiens, UniProt P28335); test: GPCR Profiler; format: cell-based
# T4 construct: host or cells: Chem-1 cells with promiscuous Gα15
# T4 sequence (P28335 33-458): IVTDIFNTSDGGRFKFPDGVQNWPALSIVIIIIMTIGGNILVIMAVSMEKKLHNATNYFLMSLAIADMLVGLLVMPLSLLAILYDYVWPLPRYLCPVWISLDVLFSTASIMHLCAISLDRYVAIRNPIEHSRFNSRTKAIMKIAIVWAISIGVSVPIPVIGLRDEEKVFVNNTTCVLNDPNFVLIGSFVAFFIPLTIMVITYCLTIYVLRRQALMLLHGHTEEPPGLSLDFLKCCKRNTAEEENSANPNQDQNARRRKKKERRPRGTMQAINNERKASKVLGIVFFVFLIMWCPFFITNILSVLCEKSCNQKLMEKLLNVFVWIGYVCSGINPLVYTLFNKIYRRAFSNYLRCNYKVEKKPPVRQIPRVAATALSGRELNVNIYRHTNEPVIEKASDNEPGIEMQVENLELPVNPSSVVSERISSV
# [6] = biological target: T5, MST1R (Homo sapiens, UniProt Q04912); test: KinomeScan; format: binding; settings: read-out: % Control
# T5 construct: purchased DiscoveRx
# [7] = biological target: T6, ERK3 (Homo sapiens, UniProt Q16659); test: KinomeScan; format: binding; settings: read-out: % Control
# T6 construct: purchased DiscoveRx (Fremont, CA)
# [8] = biological target: T7, GPR43 (Homo sapiens, UniProt O15552); test: GPCR Profiler; format: cell-based
# T7 construct: host or cells: Chem-1 cells with promiscuous Gα15
# T7 sequence (O15552 whole entry, species assumed): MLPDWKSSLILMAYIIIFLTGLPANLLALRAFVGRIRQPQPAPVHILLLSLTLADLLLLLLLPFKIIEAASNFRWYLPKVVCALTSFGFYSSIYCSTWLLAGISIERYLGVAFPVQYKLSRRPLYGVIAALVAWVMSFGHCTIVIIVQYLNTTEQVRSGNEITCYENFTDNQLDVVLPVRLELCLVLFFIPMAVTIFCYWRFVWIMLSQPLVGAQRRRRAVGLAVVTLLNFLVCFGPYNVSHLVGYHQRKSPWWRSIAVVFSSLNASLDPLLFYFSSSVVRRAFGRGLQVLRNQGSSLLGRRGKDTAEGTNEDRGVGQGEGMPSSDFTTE
# [9] = biological target: T8, DMPK2 (Homo sapiens, UniProt Q6DT37); test: KinomeScan; format: binding; settings: read-out: % Control
# T8 construct: purchased DiscoveRx (Fremont, CA), KinomeScan service
# [10] = biological target: T9, ADRA1D (Homo sapiens, UniProt P25100); test: GPCR Profiler; format: cell-based
# T9 construct: host or cells: Chem-1 cells with promiscuous Gα15
# T9 sequence (P25100 whole entry, species assumed): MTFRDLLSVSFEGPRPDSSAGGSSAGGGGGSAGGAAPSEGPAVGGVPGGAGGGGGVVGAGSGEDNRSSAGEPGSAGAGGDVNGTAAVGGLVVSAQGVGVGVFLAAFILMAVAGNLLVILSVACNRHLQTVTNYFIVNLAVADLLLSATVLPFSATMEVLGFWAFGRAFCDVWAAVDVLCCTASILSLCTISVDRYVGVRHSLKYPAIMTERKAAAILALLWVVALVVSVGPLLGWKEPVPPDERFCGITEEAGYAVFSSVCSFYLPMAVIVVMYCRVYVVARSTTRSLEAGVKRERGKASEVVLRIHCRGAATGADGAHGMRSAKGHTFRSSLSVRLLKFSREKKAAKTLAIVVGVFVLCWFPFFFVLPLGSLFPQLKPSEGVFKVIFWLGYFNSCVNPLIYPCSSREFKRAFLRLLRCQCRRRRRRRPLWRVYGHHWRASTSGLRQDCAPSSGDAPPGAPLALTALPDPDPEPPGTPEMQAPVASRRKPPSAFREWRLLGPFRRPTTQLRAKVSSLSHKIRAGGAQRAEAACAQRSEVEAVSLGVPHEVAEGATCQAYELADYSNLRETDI
# [11] = biological target: T10, NEK1 (Homo sapiens, UniProt Q96PY6); test: KinomeScan; format: binding; settings: read-out: % Control
# T10 construct: purchased DiscoveRx
# [12] = biological target: T11, PIK3CA(Q546K) (Homo sapiens, UniProt P42336, Q546K); test: KinomeScan; format: binding; settings: read-out: % Control
# T11 construct: purchased DiscoveRx (Fremont, CA)
# [13] = biological target: T12, DCAMKL1 (Homo sapiens, UniProt O15075); test: KinomeScan; format: binding; settings: read-out: % Control
# T12 construct: purchased DiscoveRx (Fremont, CA), KinomeScan service
# [14] = biological target: T13, PLK3 (Homo sapiens, UniProt Q9H4B4); test: KinomeScan; format: binding; settings: read-out: % Control
# T13 construct: purchased DiscoveRx (Fremont, CA)
# [15] = biological target: T14, MC4 (Homo sapiens, UniProt P32245); test: GPCR Profiler; format: cell-based
# T14 construct: host or cells: Chem-1 cells with promiscuous Gα15
# T14 sequence (P32245 whole entry): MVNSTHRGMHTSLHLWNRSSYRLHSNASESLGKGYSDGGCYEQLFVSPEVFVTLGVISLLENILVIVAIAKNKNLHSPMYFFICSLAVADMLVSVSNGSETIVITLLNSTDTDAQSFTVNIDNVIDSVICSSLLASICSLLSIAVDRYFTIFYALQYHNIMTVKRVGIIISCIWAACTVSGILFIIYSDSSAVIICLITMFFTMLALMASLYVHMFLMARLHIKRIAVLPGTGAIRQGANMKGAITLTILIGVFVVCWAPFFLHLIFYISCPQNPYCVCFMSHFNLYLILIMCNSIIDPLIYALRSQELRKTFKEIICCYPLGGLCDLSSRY
# [16] = biological target: CSNK1D (Homo sapiens, UniProt P48730); test: KinomeScan; format: binding; settings: read-out: % Control
# Chain of CSNK1D (P48730 whole entry): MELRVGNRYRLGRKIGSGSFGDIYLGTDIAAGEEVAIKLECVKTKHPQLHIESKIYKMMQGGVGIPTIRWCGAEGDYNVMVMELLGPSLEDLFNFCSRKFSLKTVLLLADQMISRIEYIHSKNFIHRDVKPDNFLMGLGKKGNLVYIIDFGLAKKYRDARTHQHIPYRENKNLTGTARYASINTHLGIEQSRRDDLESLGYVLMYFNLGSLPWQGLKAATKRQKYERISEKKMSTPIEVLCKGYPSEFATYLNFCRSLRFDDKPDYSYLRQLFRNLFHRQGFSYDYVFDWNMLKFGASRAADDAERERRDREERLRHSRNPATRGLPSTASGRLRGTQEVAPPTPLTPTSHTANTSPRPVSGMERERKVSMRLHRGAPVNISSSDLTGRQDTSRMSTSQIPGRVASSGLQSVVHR
# [17] = biological target: T15, IGF1R (Homo sapiens, UniProt P08069); test: KinomeScan; format: binding; settings: read-out: % Control
# T15 construct: purchased DiscoveRx (Fremont, CA)
# T15 sequence (P08069 31-1367): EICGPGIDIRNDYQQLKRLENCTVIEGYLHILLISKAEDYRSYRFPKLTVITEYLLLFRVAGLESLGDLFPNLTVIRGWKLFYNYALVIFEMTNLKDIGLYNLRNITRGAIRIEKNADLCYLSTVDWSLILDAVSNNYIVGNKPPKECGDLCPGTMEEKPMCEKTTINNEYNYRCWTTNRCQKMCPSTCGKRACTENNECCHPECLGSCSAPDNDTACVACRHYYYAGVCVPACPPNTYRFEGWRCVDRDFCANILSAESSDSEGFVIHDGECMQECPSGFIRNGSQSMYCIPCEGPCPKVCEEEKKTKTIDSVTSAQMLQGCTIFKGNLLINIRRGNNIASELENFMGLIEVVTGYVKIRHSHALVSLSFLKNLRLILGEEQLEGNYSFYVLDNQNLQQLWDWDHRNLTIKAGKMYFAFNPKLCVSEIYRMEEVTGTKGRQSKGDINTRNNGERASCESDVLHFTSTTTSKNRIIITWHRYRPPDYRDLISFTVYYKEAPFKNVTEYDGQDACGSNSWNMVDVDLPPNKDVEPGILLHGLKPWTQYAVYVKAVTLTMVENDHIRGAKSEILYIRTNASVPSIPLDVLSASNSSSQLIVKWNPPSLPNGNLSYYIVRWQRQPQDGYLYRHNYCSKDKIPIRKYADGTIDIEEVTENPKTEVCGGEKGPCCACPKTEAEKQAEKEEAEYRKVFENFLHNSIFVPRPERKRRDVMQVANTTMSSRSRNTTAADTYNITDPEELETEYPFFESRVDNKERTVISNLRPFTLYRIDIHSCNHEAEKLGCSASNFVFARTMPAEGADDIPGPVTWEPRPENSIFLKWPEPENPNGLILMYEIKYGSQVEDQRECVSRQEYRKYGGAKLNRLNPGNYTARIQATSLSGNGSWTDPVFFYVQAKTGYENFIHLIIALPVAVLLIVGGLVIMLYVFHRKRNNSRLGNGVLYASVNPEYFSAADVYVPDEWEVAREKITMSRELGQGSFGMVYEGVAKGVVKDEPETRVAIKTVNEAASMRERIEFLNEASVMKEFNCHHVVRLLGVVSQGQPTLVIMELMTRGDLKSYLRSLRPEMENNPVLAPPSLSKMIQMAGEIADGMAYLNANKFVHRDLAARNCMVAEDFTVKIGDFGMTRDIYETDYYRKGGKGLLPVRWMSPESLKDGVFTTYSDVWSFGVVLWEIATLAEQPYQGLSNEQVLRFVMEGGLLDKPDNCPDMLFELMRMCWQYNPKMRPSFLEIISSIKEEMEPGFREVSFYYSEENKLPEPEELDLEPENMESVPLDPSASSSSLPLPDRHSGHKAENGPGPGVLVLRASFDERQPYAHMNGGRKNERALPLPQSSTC
# [18] = biological target: T16, TLK2 (Homo sapiens, UniProt Q86UE8); test: KinomeScan; format: binding; settings: read-out: % Control
# T16 construct: purchased DiscoveRx (Fremont, CA)
# [19] = biological target: T17, CDK4-cyclinD1 (Homo sapiens, UniProt P11802); test: KinomeScan; format: binding; settings: read-out: % Control
# T17 construct: purchased DiscoveRx (KinomeScan service)
# [20] = biological target: T18, D2 (Homo sapiens, UniProt P14416); test: GPCR Profiler; format: cell-based
# T18 construct: host or cells: Chem-1 cells with Gα15
# T18 sequence (P14416 whole entry): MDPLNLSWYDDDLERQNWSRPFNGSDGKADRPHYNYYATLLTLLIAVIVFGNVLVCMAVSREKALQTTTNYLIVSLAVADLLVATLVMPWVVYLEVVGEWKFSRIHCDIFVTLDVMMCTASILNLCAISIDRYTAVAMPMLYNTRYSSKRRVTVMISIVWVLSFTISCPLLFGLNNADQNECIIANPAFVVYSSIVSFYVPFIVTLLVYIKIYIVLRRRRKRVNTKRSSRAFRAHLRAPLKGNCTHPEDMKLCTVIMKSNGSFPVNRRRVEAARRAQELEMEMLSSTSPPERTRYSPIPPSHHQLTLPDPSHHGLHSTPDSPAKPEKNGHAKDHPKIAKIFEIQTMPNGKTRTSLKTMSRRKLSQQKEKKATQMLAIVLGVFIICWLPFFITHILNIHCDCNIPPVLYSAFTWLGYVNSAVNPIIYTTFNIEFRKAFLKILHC
# [21] = biological target: T19, AAK1 (Homo sapiens, UniProt Q2M2I8); test: KinomeScan; format: binding; settings: read-out: % Control
# T19 construct: purchased DiscoveRx
# [22] = biological target: T20, CCR8 (Homo sapiens, UniProt P51685); test: GPCR Profiler; format: cell-based
# T20 construct: host or cells: Chem-1 cells with Gα15
# T20 sequence (P51685 whole entry, species assumed): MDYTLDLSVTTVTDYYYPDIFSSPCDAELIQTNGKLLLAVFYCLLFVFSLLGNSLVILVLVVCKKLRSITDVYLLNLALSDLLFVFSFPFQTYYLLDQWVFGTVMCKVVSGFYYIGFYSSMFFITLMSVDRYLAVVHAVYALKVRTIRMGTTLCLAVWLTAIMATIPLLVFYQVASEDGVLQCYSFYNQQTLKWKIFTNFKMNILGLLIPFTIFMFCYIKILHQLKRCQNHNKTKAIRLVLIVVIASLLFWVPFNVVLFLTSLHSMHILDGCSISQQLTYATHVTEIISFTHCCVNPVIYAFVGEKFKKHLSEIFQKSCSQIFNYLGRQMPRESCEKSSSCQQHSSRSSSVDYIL
# [23] = biological target: T21, PRKG2 (Homo sapiens, UniProt Q13237); test: KinomeScan; format: binding; settings: read-out: % Control
# T21 construct: purchased DiscoveRx (Fremont, CA)
# [24] = biological target: T22, LKB1 (Homo sapiens, UniProt Q15831); test: KinomeScan; format: binding; settings: read-out: % Control
# T22 construct: purchased DiscoveRx
# T22 sequence (Q15831 whole entry): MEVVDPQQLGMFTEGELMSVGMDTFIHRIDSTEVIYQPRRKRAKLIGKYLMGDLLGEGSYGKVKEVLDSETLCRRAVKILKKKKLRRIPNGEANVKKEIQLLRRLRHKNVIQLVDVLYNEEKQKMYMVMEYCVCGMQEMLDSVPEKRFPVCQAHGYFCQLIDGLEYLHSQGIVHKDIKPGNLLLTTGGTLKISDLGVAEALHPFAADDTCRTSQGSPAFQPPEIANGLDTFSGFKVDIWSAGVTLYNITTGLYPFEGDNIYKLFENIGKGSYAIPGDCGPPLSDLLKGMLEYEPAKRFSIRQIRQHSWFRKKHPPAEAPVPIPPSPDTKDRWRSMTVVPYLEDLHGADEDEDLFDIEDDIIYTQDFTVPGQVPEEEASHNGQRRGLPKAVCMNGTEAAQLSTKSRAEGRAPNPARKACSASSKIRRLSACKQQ
# T1 sequence (P25105 whole entry): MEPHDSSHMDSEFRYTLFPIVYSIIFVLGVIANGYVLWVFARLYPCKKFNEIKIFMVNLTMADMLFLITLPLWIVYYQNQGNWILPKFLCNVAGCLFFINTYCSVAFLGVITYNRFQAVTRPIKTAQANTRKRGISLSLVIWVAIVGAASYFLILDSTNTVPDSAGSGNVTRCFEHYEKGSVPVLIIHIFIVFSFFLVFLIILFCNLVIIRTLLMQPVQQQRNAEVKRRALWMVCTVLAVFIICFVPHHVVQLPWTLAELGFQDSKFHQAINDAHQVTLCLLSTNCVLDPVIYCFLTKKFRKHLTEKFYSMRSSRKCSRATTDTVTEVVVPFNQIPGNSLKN
smiles,measurement,setting,value
"CCc1ccc2c(c1)C1(NN=C(c3cccc4ccccc34)S1)C(=O)N2 (stereo not shown) [OGM1, 5-ethyl-5′-naphthalen-1-ylspiro[1H-indole-3,2′-3H-1,3,4-thiadiazole]-2-one]",Antagonism,[1]; 10 uM,6.6
same,Agonism,[1]; 12.5 uM,0.4
same,remaining binding at 10 µM,[2],72%
same,GPCRs significantly inhibited,[3],"significantly inhibited only the lysophosphatidic acid receptor 1 (LPAR1), and extracellular proton-sensing GPR68/OGR1"
same,remaining binding at 10 µM,[4],100%
same,Antagonism,[5]; 10 uM,−10.9
same,Agonism,[5]; 12.5 uM,2.2
same,remaining binding at 10 µM,[6],86%
same,remaining binding at 10 µM,[7],100%
same,Antagonism,[8]; 10 uM,6.4
same,Agonism,[8]; 12.5 uM,−0.2
same,remaining binding at 10 µM,[9],93%
same,Antagonism,[10]; 10 uM,−5.7
same,Agonism,[10]; 12.5 uM,0.8
same,remaining binding at 10 µM,[11],83%
same,remaining binding at 10 µM,[12],95%
same,remaining binding at 10 µM,[13],72%
same,remaining binding at 10 µM,[14],100%
same,Antagonism,[15]; 10 uM,−5.4
same,Agonism,[15]; 12.5 uM,−0.3
same,remaining binding at 10 µM,[16],100%
same,remaining binding at 10 µM,[17],84%
same,remaining binding at 10 µM,[18],71%
same,remaining binding at 10 µM,[19],69%
same,Antagonism,[20]; 10 uM,11.4
same,Agonism,[20]; 12.5 uM,−0.5
same,remaining binding at 10 µM,[21],100%
same,Antagonism,[22]; 10 uM,−2.5
same,Agonism,[22]; 12.5 uM,2
same,remaining binding at 10 µM,[23],91%
same,remaining binding at 10 µM,[24],78%
